Data on five compounds can be found in patent US4024256A, “Method and composition for treating urinary tract infections” (priority 1975, dated 1977).

The subject of data set [1] is bacterial urease. As to conditions: cited from earlier work.
Data set [2] concerns urease producing bacteria. As to conditions: cited from earlier work.
Data set [3] deals with Proteus. As to the kind of experiment: static-dynamic system, bacteriostasis against Proteus, statements over all experiments. It counts as cell-based, Proteus mirabilis, Proteus rettgeri, Proteus morgani. The settings on record: methenamine 0.1 mg/ml, acidic urine, 10^4 - 10^7 per ml. How it is done:
In this example in vitro investigations were carried out using a static-dynamic system delineating (1) bacteriostatic dose-response relation for methenamine against Proteus, and (2) a synergistic bacteriostatic dose-response relation for methenamine and acetohydroxamic acid against Proteus. […] The tubes were placed in a bacteriological incubator at 37° C. […] Incubation of the tubes at 37° and sequential dilutions were made a 6 hour intervals for 24 hours. The variables for each of eight experiments are detailed in Table 2. Bacterial colony forming units (cfu) and urine pH were determined at the beginning and at the completion of each six hour incubation. The cfu units present after six hours of incubation are graphed in FIGS. 4-15. […] When bacteriostatis was absent, the number of cfu after six hours of incubation was equal to or greater than the number of cfu at the beginning of incubation. A strain of Proteus mirabilis isolated from the urine of patients with urinary tract infections was used in most experiments. Overnight growth in brain heart infusion (BHI) broth regularly produced 10^9 cfu/ml. The overnight culture was centrifuged at 3000 rpm for 20 minutes. The supernatant was discharged, and the bacterial pellet was resuspended in an equal volume of synthetic urine. […]

Data set [4] deals with Proteus mirabilis. The data set can be described thus: dynamic model of the urinary tract (FIGS. 16, 17). It counts as cell-based. The procedure:
This example was carried out using a dynamic model as described in connection with Example 2. […] Proteus species, isolated from the urine of patients with known urinary infection, were maintained in the laboratory by monthly transfer on agar […]. These organisms grew to about 10^9 colony forming units (cfu) per ml after overnight growth at 37° C in brain heart infusion broth (BHI). […] The pH of this synthetic urine was 5.85. […] In this dynamic system urine with or without acetohydroxamic acid was pumped at 48 ml/hr from reservoirs via an auto-analyzer pump into reaction chambers which were incubated in a shaking water bath at 37° C. […] Every six hours the reaction chambers were emptied except for a 5 ml residual, and the sequence was repeated. In these experiments the pH, ammonia concentration and cfu per ml urine were determined for each reaction chamber at the end of each six hour period.

In data set [5] the test system is Proteus. The data set can be described thus: preliminary investigations in the dynamic system. It counts as cell-based. As to conditions: methenamine 0.9 mg/ml. The text has this: Utilizing a multicassetts roller pump, urine of a pH of 5.85 was pumped at 40 milliliters per hour from three reservoir flasks into three reaction chambers. […] An aqueous solution of 18 milligrams per milliliter of methenamine at a pH of 7.5 was pumped into reaction chambers 1 and 3 at a rate of two milliliters per hour yielding a final concentration of methenamine of 0.9 milligrams per milliliter. […] The reaction chambers contained gently rotating magnetic stirrers and were kept in a warm bath at 37° C.

Data set [6] relates to Proteus rettgeri. The data set can be described thus: dynamic study resembling a Proteus infected human bladder (FIG. 3). It counts as cell-based. The settings on record: methenamine 0.9 mg/ml. The procedure: Dynamic studies were conducted to further illustrate the synergistic effect associated with the combined presence of a source of methenamine, i.e., methenamine itself and a source of hyroxamate groups, i.e., acetohydroxamic acid in the urine. […] Utilizing a multicassetts roller pump, urine of a pH of 5.85 was pumped at 40 milliliters per hour from three reservoir flasks into three reaction chambers. […] An aqueous solution of 18 milligrams per milliliter of methenamine at a pH of 7.5 was pumped into reaction chambers 1 and 3 at a rate of two milliliters per hour yielding a final concentration of methenamine of 0.9 milligrams per milliliter. […] The reaction chambers contained gently rotating magnetic stirrers and were kept in a warm bath at 37° C. […] At 4 - 6 hour intervals the volume of urine in each reaction chamber was recorded, the pH of each reaction chamber was determined and serial dilutions were carried out for bacterial enumeration.

Data set [7] has as its system Proteus mirabilis. The data set can be described thus: static-dynamic system, bacteriostasis against Proteus mirabilis (Experiments A-J). It counts as cell-based. The procedure: In this example in vitro investigations were carried out using a static-dynamic system delineating (1) bacteriostatic dose-response relation for methenamine against Proteus, and (2) a synergistic bacteriostatic dose-response relation for methenamine and acetohydroxamic acid against Proteus. […] The tubes were placed in a bacteriological incubator at 37° C. […] Incubation of the tubes at 37° and sequential dilutions were made a 6 hour intervals for 24 hours. The variables for each of eight experiments are detailed in Table 2. Bacterial colony forming units (cfu) and urine pH were determined at the beginning and at the completion of each six hour incubation. The cfu units present after six hours of incubation are graphed in FIGS. 4-15. […] When bacteriostatis was absent, the number of cfu after six hours of incubation was equal to or greater than the number of cfu at the beginning of incubation. A strain of Proteus mirabilis isolated from the urine of patients with urinary tract infections was used in most experiments. Overnight growth in brain heart infusion (BHI) broth regularly produced 10^9 cfu/ml. The overnight culture was centrifuged at 3000 rpm for 20 minutes. The supernatant was discharged, and the bacterial pellet was resuspended in an equal volume of synthetic urine. The bacteria were resuspended in synthetic urine to prevent differences in pH as the bacteria were inoculated into tubes of synthetic urine. […] The results are illustrated in FIGS. 4-15 which relates respectively to Experiment A-L of Table 2. Each of FIGS. 4-15 represents colony forming units (cfu) present at the completion of six hour incubations. 100-fold dilutions were made prior to initiating subsequent six hour incubations. Each figure also includes a line representative of theoretically perfect bacteriostasis.

Data set [8] has as its system Proteus rettgeri. The data set can be described thus: static study in synthetic urine: viable bacteria, Proteus rettgeri (FIG. 2). The settings on record: methenamine 0.9 mg/ml. It counts as cell-based. The procedure:
(§1) Static studies were conducted to illustrate the synergistic effect achieved in accordance with the present invention through the combined employment of a source of methenamine, i.e., methenamine itself and a source of hydroxamate groups, i.e., acetohydroxamic acid. In order to achieve reproducibility of results with large quantities or urine required for these studies a synthetic urine was formulated based on the proportion of solutes found in the urine from normal human subjects. The composition of such urine was as follows: Brain heart infusion (BHI) broth in a final concentration of 5% was added to support bacterial growth. The pH of the synthetic urine prior to addition of the BHI broth was 5.7 - 5.8. […] In these tests the methenamine was utilized in a final concentration of 0.9 milligrams per milliliter. […] Dally and […], 1969, Analytical BioChem 28:13-21. […] These concentrations which were selected in the static studies were concentrations which would be achievable in the urine of patients with normal renal function. […] At each pH level a set of four tubes was obtained, with these tubes being as follows: 1. Urine alone (control); 2. Urine plus methenamine; 3. Urine plus acetohydroxamic acid; and 4. Urine plus acetohyroxamic acid plus methenamine. […] At varying time intervals aliquots were removed for pH determination and bacterial enumeration by serial tenfold dilution.

In data set [9] the test system is Proteus species. As to the kind of experiment: static study in synthetic urine: inhibition of alkalinization by Proteus species. Type of data set: cell-based. The settings on record: methenamine 0.9 mg/ml. The procedure: as §1
For data set [10] the following is noted: cited from earlier work.

Molecules are shown by their SMILES. Entries after “also recorded” stand apart in the source; their conditions may differ. Read-outs that look alike come from different tables or passages of the source.

Turning to `CC(C)C(=O)NO` [isobutyhydroxamic acid], the urease inhibiting effect result in data set [1] is “appear to possess the greatest urease inhibiting effect”.
For the compound `O=CNO` [formohydroxamic acid], the urease inhibiting effect entry in [1] is “appear to possess the greatest urease inhibiting effect”.
Regarding `C1N2CN3CN1CN(C2)C3` [methenamine mandelate], the “effect on overcoming the alkalinization of the urine” value in [2] (urinary infections produced by urease producing bacteria) is “no real effect on overcoming the alkalinization of the urine”.
For the compound `CCC(=O)NO` [propionohydroxamic acid], in data set [1], the urease inhibiting effect result was “appear to possess the greatest urease inhibiting effect”.
As to `C1N2CN3CN1CN(C2)C3` [methenamine, hexamethenamine tetramine], the bacteriostasis result is “bacteriostasis” in [3]; “no bacteriostasis” in data set [7] (methenamine 0.05 mg/ml, ≥10^6 /ml Proteus (Experiments C through H)); “bacteriostasis” in data set [7] (methenamine 0.2 mg/ml, acidic urine (Experiments E and F)). For the same compound, in [2] (methenamine alone, typical anti-bacterial dosage, alkaline pH), the “effectiveness at alkaline pH” value is “not effective at an alkaline pH”. In data set [2] (pH of the urine reaches 6.5), the “anti-bacterial effect of the methenamine” value was “totally diminished”. In addition, the “effect on pH” value in data set [4] (lower concentrations of methenamine) was “the pH rapidly became alkaline and remained so throughout”; in data set [4] (methenamine alone, 0.5 mg/ml) it was “initial tendency for the pH to neutralize in the presence of methenamine alone was overcome by the end of 18-24 hours”. The bacterial growth result in [4] (methenamine alone 0.5 mg/ml (FIG. 16)) was “slightly inhibited bacterial growth”. Besides, in data set [5], the “growth of Proteus and alkalinization of urine versus synthetic urine alone” value is “affected growth of Proteus and alkalinization of urine only slightly”. Also, the “colony count by the end of the second time period and throughout” value in data set [6] was “greater than 10^7 per milliliter”. In addition, in data set [6], the “number of bacteria, first six hours” value was “fell slightly during the first six hours”. The “pH at the end of each four to eight hour period” value in [6] is given as “exceeded 8.5”. In addition, the “bacteriostatic effect in alkaline urine versus acidic urine” value in [7] (alkaline urine (FIGS. 12 and 13; experiments I, J)) is recorded as “much less bacteriostatic in alkaline urine”. For the same compound, the bacteriostatic activity result was “some bacteriostatic activity; also recorded: mild bacteriostatic effect” in data set [7] (methenamine 0.05 mg/ml, pH 5.9, 10^4 /ml and 10^5 /ml (Experiments A, B)); “little or no bacteriostatic activity” in [7] (methenamine 0.05 mg/ml, ≥ 10^6 Proteus/ml (FIGS. 4-7)). For the same compound, in data set [7] (methenamine 0.2 mg/ml (FIGS. 8, 9)), the “bacteriostatic effect compared with methenamine 0.1 mg/ml” value is given as “consistently exerted a greater bacteriostatic effect than did methenamine 0.1 mg/ml”. Besides, in [8], the “anti-bacterial effect, dependence on initial pH” value is “proportional to the initial pH”. For the same compound, the effect on alkalinization result in [9] (between pH 5.3 and 6.5) is given as “alkalinization was inhibited in proportion to the initial urine acidity”; in data set [9] (initial pH less than 5.3), “only a slight upward drift was observed”; in [9] (pH greater than 6.5) it was “did not alter progressive alkalinization”. Also, the release of formaldehyde entry in [10] (pH 5.0) was “excellent release of formaldehyde”; in data set [10] (pH 5.5) it was “good release of formaldehyde”; in data set [10] (pH 6.0), “generally adequate for the treatment of most urinary tract infections”. Besides, the “conversion and release of formaldehyde” value in data set [10] (pH of the urine 6.5) is “insufficient conversion and release of formaldehyde”.
